Reference: article PMC10529594, “Strasseriolides display in vitro and in vivo activity against trypanosomal parasites and cause morphological and size defects in Trypanosoma cruzi” (PLOS Neglected Tropical Diseases, 2023)
Structures can show the parent of a compound that is named as a salt. Where two headings read alike, the source gives them in different places.

Key:
[1] = tested on: intracellular T. cruzi amastigotes; experiment: Rate of kill, intracellular T. cruzi amastigotes (CPRG, 96-well); type: cell-based, Trypanosoma cruzi; conditions: Amastigotes; for EC50: Trypanosoma cruzi
Protocol: For rate of kill experiments, in vitro activity against intracellular T. cruzi amastigotes was analyzed at early time points: 24, 48 and 72 hours. The standard colorimetric transgenic assay was established in a 96-well format, with serial dilutions of compounds and 0.05% as the final maximal DMSO percentage per well. In these experiments L6 host cells were included as negative controls and CPRG conversion was monitored at 585 nm using a Versamax microplate reader (Molecular devices).

T. cruzi trypomastigotes = experiment: T. cruzi trypomastigote viability / rate of action assay (CellTiter-Glo bioluminescence); type: cell-based, Trypanosoma cruzi; conditions: for EC50: Trypanosoma cruzi, read-out: EC50; for EC50 / EC90/EC50 / Hill slope: Trypomastigotes
Protocol: Tulahuen T. cruzi trypomastigotes were recovered 6 days post infection from the supernatant of harvested infected L6 cells cultures after 3 hours at 37°C. 90 μL of parasite culture at a density of 5 × 10^6 cells in RPMI 1640 media were dispensed into 96 Nunc flat bottom assay plates containing 10 μL of each compound.
Parasite viability was assessed upon 24, 48 and 72 hour incubation at 37°C in 5% CO2 by adding 50 μL of CellTiter-Glo viability reagent to white 96-well microplates. After signal stabilization, bioluminescence was read. Compound concentrations ranged from 0.1 μM to 50 μM and final maximal DMSO percentage in the well was 0.05%. Results were normalized to […] control columns in each plate.

[2] = tested on: L. donovani MHOM/ET/67/HU3 transgenic intracellular amastigotes; experiment: L. donovani intracellular amastigote assay (luciferase, THP-1 macrophages); type: cell-based; conditions: Leishmania donovani, THP-1, 72 h, read-out: EC50 L. donovani
Protocol: Leishmania donovani MHOM/ET/67/HU3 cells with the luciferase gene integrated into the parasite genome was obtained as described. Parasites were grown at 28°C in RPMI 1640-modified medium supplemented with 20% heat-inactivated fetal bovine serum (iFBS, Invitrogen) with […] of hygromycin B.
THP-1 cells were differentiated into macrophages with 20 ng/mL of PMA in a 96-well plate at 3 × 10^4 cells per well for 48 hours followed by 24 hours of culture in fresh medium. Cells were then infected with transgenic stationary L. donovani MHOM/ET/67/HU3 promastigotes expressing the luciferase gene at a multiplicity of infection (MOI) of 10. A volume of 100 μL of culture media containing the test compounds was added to each well and the plates were incubated at 37°C for 72 hours. Luminescence was measured using the Promega kit luciferase assay system.

[3] = tested on: T. b. brucei 427 bloodstream forms; experiment: Resazurin-based T. b. brucei assay; type: cell-based; conditions: Trypanosoma brucei; T. b. brucei 427 bloodstream forms, 72 h; read-out: EC50 T. brucei
Protocol: Parasites strains adapted to culture in vitro were used. T. b. brucei Lister 427 bloodstream form parasites (information about the identity and genealogy of this strain is available at The Rockefeller University website) were grown in HMI-9 medium supplemented with 10% heat-inactivated fetal bovine serum (iFBS).
Cells in logarithmic phase of growth were added using a Multidrop dispenser (45 μL, 500 bloodstream T. b. brucei parasites per well) to 384-well Corning assay plates already containing 5 μL of each compound and controls, and incubated for 72 hours at 37°C. 10 μL of resazurin were added per well, and the plates were further incubated for 6 hours at 37°C. The final fluorescence was determined at 550–590 nm. Pentamidine at 40 nM and 0.0067% DMSO were used as […] growth controls, respectively.

Work on `CC[C@@H]([C@H](C)O)n1ncn(-c2ccc(N3CCN(c4ccc(OC[C@@H]5CO[C@@](Cn6cncn6)(c6ccc(F)cc6F)C5)cc4)CC3)cc2)c1=O` [Posaconazole, posaconazole] yielded an EC90/EC50 ([1]; 24 h) of 5.16, a Hill slope ([1]; 24 h) of 1.33 and an EC90/EC50 ([1]; 48 h) of 6.41. The Hill slope ([1]; 48 h) was 1.20, the EC90/EC50 ([1]; 72 h) was 1.83 and the Hill slope ([1]; 72 h) was 3.65. It also gave an EC50 ([1]; 24 h) of 5410 nM, an EC50 ([1]; 48 h) of 0.8 nM and an EC50 ([1]; 72 h) of 0.7 nM. For the same compound, the “effect against extracellular forms (trypomastigotes)” value (T. cruzi trypomastigotes; 2 μM, 24 and 48 hours) was “no effect”.
`C[C@@H]1[C@H](O)[C@@H](C)/C=C/C=C/C=C/C=C/C=C/C=C/C=C/[C@H](O[C@@H]2O[C@H](C)[C@@H](O)[C@H](N)[C@@H]2O)C[C@@H]2O[C@](O)(C[C@@H](O)C[C@@H](O)[C@H](O)CC[C@@H](O)C[C@@H](O)CC(=O)O[C@H]1C)C[C@H](O)[C@H]2C(=O)O` [Amphotericin B, amphotericin B, reference compound] was tested, and the EC50 [2] was 53 nM.
Work on `N=C(N)c1ccc(OCCCCCOc2ccc(C(=N)N)cc2)cc1` [Pentamidine, pentamidine isethionate salt, reference compound] yielded an EC50 [3] of 2 nM.
`CC1CS(=O)(=O)CCN1/N=C/c1ccc([N+](=O)[O-])o1` (stereo not shown) [Nifurtimox, nifurtimox] was tested, and the EC90/EC50 ([1]; 24 h) was 4.07, the Hill slope ([1]; 24 h) was 1.60 and the EC90/EC50 ([1]; 48 h) was 4.16. The Hill slope ([1]; 48 h) was 1.55, the EC90/EC50 ([1]; 72 h) was 3.03 and the Hill slope ([1]; 72 h) was 1.98. For the same compound, the EC50 ([1]; 24 h) was 300 nM, the EC50 ([1]; 48 h) was 150 nM and the EC50 ([1]; 72 h) was 130 nM. The “RLU Average, trypomastigote viability” value (T. cruzi trypomastigotes; 24 h, 0.0195312 µM, untreated 165759) was 169266 RLU, the “RLU Average, trypomastigote viability” value (T. cruzi trypomastigotes; 24 h, 0.0390625 µM, untreated 165759) was 166443 RLU and the “RLU Average, trypomastigote viability” value (T. cruzi trypomastigotes; 24 h, 0.078125 µM, untreated 165759) was 165831 RLU. The “RLU Average, trypomastigote viability” value (T. cruzi trypomastigotes; 24 h, 0.15625 µM, untreated 165759) was 160072 RLU, the “RLU Average, trypomastigote viability” value (T. cruzi trypomastigotes; 24 h, 0.3125 µM, untreated 165759) was 149962 RLU and the “RLU Average, trypomastigote viability” value (T. cruzi trypomastigotes; 24 h, 0.625 µM, untreated 165759) was 139314 RLU. The “RLU Average, trypomastigote viability” value (T. cruzi trypomastigotes; 24 h, 1.25 µM, untreated 165759) was 111524 RLU, the “RLU Average, trypomastigote viability” value (T. cruzi trypomastigotes; 24 h, 2.5 µM, untreated 165759) was 65827 RLU and the “RLU Average, trypomastigote viability” value (T. cruzi trypomastigotes; 24 h, 5 µM, untreated 165759) was 11749 RLU. For the same compound, the “RLU Average, trypomastigote viability” value (T. cruzi trypomastigotes; 24 h, 10 µM, untreated 165759) was 1446 RLU, the “RLU Average, trypomastigote viability” value (T. cruzi trypomastigotes; 48 h, 0.0195312 µM, untreated 134778) was 139199 RLU and the “RLU Average, trypomastigote viability” value (T. cruzi trypomastigotes; 48 h, 0.0390625 µM, untreated 134778) was 135603 RLU. For the same compound, the “RLU Average, trypomastigote viability” value (T. cruzi trypomastigotes; 48 h, 0.078125 µM, untreated 134778) was 135814 RLU, the “RLU Average, trypomastigote viability” value (T. cruzi trypomastigotes; 48 h, 0.15625 µM, untreated 134778) was 121189 RLU and the “RLU Average, trypomastigote viability” value (T. cruzi trypomastigotes; 48 h, 0.3125 µM, untreated 134778) was 101689 RLU. For the same compound, the “RLU Average, trypomastigote viability” value (T. cruzi trypomastigotes; 48 h, 0.625 µM, untreated 134778) was 74973 RLU, the “RLU Average, trypomastigote viability” value (T. cruzi trypomastigotes; 48 h, 1.25 µM, untreated 134778) was 27237 RLU and the “RLU Average, trypomastigote viability” value (T. cruzi trypomastigotes; 48 h, 2.5 µM, untreated 134778) was 4248 RLU. The “RLU Average, trypomastigote viability” value (T. cruzi trypomastigotes; 48 h, 5 µM, untreated 134778) was 1304 RLU, the “RLU Average, trypomastigote viability” value (T. cruzi trypomastigotes; 48 h, 10 µM, untreated 134778) was 430 RLU and the “RLU Average, trypomastigote viability” value (T. cruzi trypomastigotes; 72 h, 0.0195312 µM, untreated 74303) was 78773 RLU. The “RLU Average, trypomastigote viability” value (T. cruzi trypomastigotes; 72 h, 0.0390625 µM, untreated 74303) was 76780 RLU, the “RLU Average, trypomastigote viability” value (T. cruzi trypomastigotes; 72 h, 0.078125 µM, untreated 74303) was 75817 RLU and the “RLU Average, trypomastigote viability” value (T. cruzi trypomastigotes; 72 h, 0.15625 µM, untreated 74303) was 65552 RLU. For the same compound, the “RLU Average, trypomastigote viability” value (T. cruzi trypomastigotes; 72 h, 0.3125 µM, untreated 74303) was 53878 RLU, the “RLU Average, trypomastigote viability” value (T. cruzi trypomastigotes; 72 h, 0.625 µM, untreated 74303) was 44434 RLU and the “RLU Average, trypomastigote viability” value (T. cruzi trypomastigotes; 72 h, 1.25 µM, untreated 74303) was 6874 RLU. For the same compound, the “RLU Average, trypomastigote viability” value (T. cruzi trypomastigotes; 72 h, 2.5 µM, untreated 74303) was 861 RLU, the “RLU Average, trypomastigote viability” value (T. cruzi trypomastigotes; 72 h, 5 µM, untreated 74303) was 764 RLU and the “RLU Average, trypomastigote viability” value (T. cruzi trypomastigotes; 72 h, 10 µM, untreated 74303) was 553 RLU. For the same compound, the EC50 (T. cruzi trypomastigotes; 24 h) was 2080 nM, the EC50 (T. cruzi trypomastigotes; 48 h) was 640 nM and the EC50 (T. cruzi trypomastigotes; 72 h) was 600 nM. For the same compound, the EC90/EC50 (T. cruzi trypomastigotes; 24 h) was 4.04, the Hill slope (T. cruzi trypomastigotes; 24 h) was 1.58 and the EC90/EC50 (T. cruzi trypomastigotes; 48 h) was 3.61. The Hill slope (T. cruzi trypomastigotes; 48 h) was 1.71, the EC90/EC50 (T. cruzi trypomastigotes; 48 h, listed as nifurtimox) was 3.6 and the Hill slope (T. cruzi trypomastigotes; 48 h, listed as nifurtimox) was “below 2.1”. For the same compound, the EC90/EC50 (T. cruzi trypomastigotes; 72 h) was 3.33, the Hill slope (T. cruzi trypomastigotes; 72 h) was 1.83 and the EC90/EC50 (T. cruzi trypomastigotes; 72 h, listed as nifurtimox) was 3.3. For the same compound, the Hill slope (T. cruzi trypomastigotes; 72 h, listed as nifurtimox) was “below 2.1”.
